# Assay results: patent US10226426B2, “Suspension containing nano-cocrystal and manufacturing method” (TAKEDA PHARMACEUTICAL COMPANY LIMITED, priority 2015, dated 2019)
# Key:
# [1] = value at 25° C. and 1 atm; cited from earlier work
# [2] = Powder X-ray diffractometry, crystallinity by the Hermans method; format: physicochemical
# Procedure: To be specific, powder samples (about 2 mg) were placed on a silicon sample plate, and scanned between 2 and 35 degrees (2θ) at a scan speed of 6 degrees/min. Powder samples such as nanoized FSD and the like were prepared by centrifuging suspensions thereof by cooling centrifugal machine Himac CR21G (manufactured by Hitachi Koki Co., Ltd.) at 19,000 rpm for 10 min and drying same. In addition, from the obtained X-ray diffraction patterns by the Hermans method, crystallinity before and after wet grinding was calculated.
crystallinity before wet grinding [2] [%],Structure (SMILES),water solubility [1],diffraction pattern before and after wet grinding (dissociation of cocrystal) ([2]; wet grinding in 0.5% (w/v) HPMC and 0.02% (w/v) SDS),formation of hydrate by wet grinding ([2]; diffraction pattern after wet grinding)
81,COc1ccc2c(c1)c(CC(=O)O)c(C)n2C(=O)c1ccc(Cl)cc1 [indomethacin],0.0095 mg/mL,–,–
88,"NC(=O)N1c2ccccc2C=Cc2ccccc21 [anhydrous carbamazepine, carbamazepine]",0.22 mg/mL,–,formation of CBZ dihydrate could be confirmed

# Further lines, the compound ahead of its results:
Structure (SMILES),crystallinity before wet grinding [2] [%],water solubility [1],diffraction pattern before and after wet grinding (dissociation of cocrystal) ([2]; wet grinding in 0.5% (w/v) HPMC and 0.02% (w/v) SDS),formation of hydrate by wet grinding ([2]; diffraction pattern after wet grinding)
NC(N)=O [urea],–,"1,000 mg/mL",–,–
"O=C1NS(=O)(=O)c2ccccc21 [Saccharin, saccharin]",–,3.4 mg/mL,–,–
"NS(=O)(=O)c1cc(C(=O)O)c(NCc2ccco2)cc1Cl [Furosemide, furosemide]",85,–,did not show a marked difference in the diffraction pattern before and after the wet grinding,–
